PubChem BioAssay AID248 (DTP/NCI, 2004)
Several values for one entry are separate records, joined by “and”; a condition that tells them apart may be missing. Identical values can stand only once. Inconclusive results and toxic doses are left out. No stated cut-off is given here; in the data, active means T/C of 150% or more; inactive means T/C below 125%.

Test system: L1210 leukemia ip in BDF1 mice, survival T/C
Assay: NCI In Vivo Anticancer Drug Screen. Data for tumor model L1210 Leukemia (intraperitoneal) in B6D2F1 (BDF1) mice
Conditions: endpoint: mean survival time, higher = longer survival
How it was run: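 Transplantable tumor model; survival measured in treated vs vehicle control mice. Value = treated/control.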

[1] = dose: 100.0 mg/kg/injection, schedule: Q01DX001 (ip), vehicle: other
[2] = dose: 200.0 mg/kg/injection, schedule: Q01DX001 (ip), vehicle: other
[3] = dose: 400.0 mg/kg/injection, schedule: Q01DX001 (ip), vehicle: other
[4] = dose: 25.0 mg/kg/injection, schedule: Q01DX009 (ip), vehicle: saline
[5] = dose: 50.0 mg/kg/injection, schedule: Q01DX009 (ip), vehicle: saline
[6] = dose: 100.0 mg/kg/injection, schedule: Q01DX001 (ip), vehicle: carboxymethylcellulose (CMC)
[7] = dose: 100.0 mg/kg/injection, schedule: Q04DX003 (ip), vehicle: Klucel (hydroxypropylcellulose) (HPC)
[8] = dose: 400.0 mg/kg/injection, schedule: Q04DX003 (ip), vehicle: Klucel (hydroxypropylcellulose) (HPC)
[9] = dose: 100.0 mg/kg/injection, schedule: Q01DX009 (ip), vehicle: saline with Tween-80
[10] = dose: 100.0 mg/kg/injection, schedule: Q04DX003 (ip), vehicle: saline with Tween-80
[11] = dose: 200.0 mg/kg/injection, schedule: Q01DX009 (ip), vehicle: saline with Tween-80
[12] = dose: 200.0 mg/kg/injection, schedule: Q04DX003 (ip), vehicle: saline with Tween-80
[13] = dose: 400.0 mg/kg/injection, schedule: Q04DX003 (ip), vehicle: saline with Tween-80
[14] = dose: 75.0 mg/kg/injection, schedule: Q01DX001 (ip), vehicle: saline
[15] = dose: 100.0 mg/kg/injection, schedule: Q01DX009 (ip), vehicle: saline
[16] = dose: 200.0 mg/kg/injection, schedule: Q01DX009 (ip), vehicle: saline
[17] = dose: 200.0 mg/kg/injection, schedule: Q04DX003 (ip), vehicle: Klucel (hydroxypropylcellulose) (HPC)
[18] = dose: 400.0 mg/kg/injection, schedule: Q01DX009 (ip), vehicle: saline
[19] = dose: 50.0 mg/kg/injection, schedule: Q01DX009 (ip), vehicle: saline with Tween-80
[20] = dose: 100.0 mg/kg/injection, schedule: Q04DX002 (ip), vehicle: Klucel (hydroxypropylcellulose) (HPC)
[21] = dose: 200.0 mg/kg/injection, schedule: Q04DX002 (ip), vehicle: Klucel (hydroxypropylcellulose) (HPC)
[22] = dose: 400.0 mg/kg/injection, schedule: Q04DX002 (ip), vehicle: Klucel (hydroxypropylcellulose) (HPC)
[23] = dose: 100.0 mg/kg/injection, schedule: Q04DX003 (ip), vehicle: saline
[24] = dose: 200.0 mg/kg/injection, schedule: Q04DX003 (ip), vehicle: saline
[25] = dose: 400.0 mg/kg/injection, schedule: Q04DX003 (ip), vehicle: saline

Measured: T/C

Nc1cncc2ncc(-c3ccc(Cl)c(Cl)c3)nc12
inactive: dose: 50.0 mg/kg/injection, schedule: Q01DX001 (ip), vehicle: other 98 % of control | [1] 98 % of control | [2] 98 % of control | [3] 100 % of control

CCCCCc1[nH]c(=O)[nH]c(=O)c1S(=O)(=O)N1CCCCC1
inactive: dose: 100.0 mg/kg/injection, schedule: Q01DX001 (ip), vehicle: Klucel (hydroxypropylcellulose) (HPC) 107 % of control | dose: 200.0 mg/kg/injection, schedule: Q01DX001 (ip), vehicle: Klucel (hydroxypropylcellulose) (HPC) 97 % of control | dose: 400.0 mg/kg/injection, schedule: Q01DX001 (ip), vehicle: Klucel (hydroxypropylcellulose) (HPC) 110 % of control

C=CC[n+]1cccc2ccccc21
inactive: dose: 12.5 mg/kg/injection, schedule: Q01DX009 (ip), vehicle: saline 97 % of control | dose: 12.5 mg/kg/injection, schedule: Q04DX003 (ip), vehicle: saline 98 % of control | [4] 101 % of control | dose: 25.0 mg/kg/injection, schedule: Q04DX003 (ip), vehicle: saline 104 % of control | [5] 99 % of control | dose: 50.0 mg/kg/injection, schedule: Q04DX003 (ip), vehicle: saline 98 % of control

N#CC(C#N)=Cc1cccc([N+](=O)[O-])c1
inactive: dose: 50.0 mg/kg/injection, schedule: Q01DX001 (ip), vehicle: carboxymethylcellulose (CMC) 102 % of control | [6] 102 % of control | dose: 100.0 mg/kg/injection, schedule: Q01DX009 (ip), vehicle: Klucel (hydroxypropylcellulose) (HPC) 97 % of control | [7] 102 % of control | [8] 106 % of control

O=C1OC(=O)C2C3CC(C(Br)C3C(F)(Br)Br)C12 (configuration not stated)
inactive: [9] 87 % of control | [10] 115 % of control | [11] 93 % of control | [12] 98 % of control | dose: 400.0 mg/kg/injection, schedule: Q01DX009 (ip), vehicle: saline with Tween-80 90 % of control | [13] 91 % of control

CCCC[As](=O)(O)CC
inactive: [4] 104 % of control

C[N+](C)(C)CCC1CCCCC1
inactive: [14] 102 % of control

NC1=NC2OC(CO)C(O)C2O1 (configuration not stated)
inactive: [15] 104 % of control | [7] 100 % of control | [16] 95 % of control | [17] 95 % of control | [18] 101 % of control | [8] 97 % of control

COc1cc(C(=O)N(CCCl)N=O)cc(OC)c1OC
inactive: dose: 1.56 mg/kg/injection, schedule: Q01DX009 (ip), vehicle: saline with Tween-80 100 % of control | dose: 3.12 mg/kg/injection, schedule: Q01DX009 (ip), vehicle: saline with Tween-80 100 % of control and 107 % of control | dose: 6.25 mg/kg/injection, schedule: Q01DX009 (ip), vehicle: saline with Tween-80 100 % of control and 104 % of control | dose: 12.5 mg/kg/injection, schedule: Q01DX009 (ip), vehicle: saline with Tween-80 104 % of control | dose: 25.0 mg/kg/injection, schedule: Q04DX003 (ip), vehicle: saline with Tween-80 102 % of control | dose: 50.0 mg/kg/injection, schedule: Q04DX003 (ip), vehicle: saline with Tween-80 89 % of control | [10] 102 % of control and 86 % of control

COC(C(=O)O)c1ccc(Cl)cc1 (configuration not stated)
inactive: dose: 100.0 mg/kg/injection, schedule: Q04DX002 (ip), vehicle: saline with Tween-80 98 % of control | dose: 200.0 mg/kg/injection, schedule: Q04DX002 (ip), vehicle: saline with Tween-80 91 % of control | dose: 400.0 mg/kg/injection, schedule: Q04DX002 (ip), vehicle: saline with Tween-80 91 % of control

O=C(O)c1cccc(C(=O)Oc2ccccc2-c2ccccc2)c1
inactive: [19] 94 % of control | [9] 87 % of control | [11] 94 % of control

CO[As](OC)c1ccc(N=Nc2ccc(N(C)C)cc2)cc1
inactive: dose: 1.56 mg/kg/injection, schedule: Q04DX003 (ip), vehicle: Klucel (hydroxypropylcellulose) (HPC) 100 % of control | dose: 3.13 mg/kg/injection, schedule: Q04DX003 (ip), vehicle: Klucel (hydroxypropylcellulose) (HPC) 100 % of control | dose: 6.25 mg/kg/injection, schedule: Q04DX003 (ip), vehicle: Klucel (hydroxypropylcellulose) (HPC) 92 % of control

CC1(C)C(=O)Nc2ccccc2N1C(=O)CN1CCCC1
inactive: dose: 9.37 mg/kg/injection, schedule: Q01DX009 (ip), vehicle: acetone 97 % of control | dose: 18.75 mg/kg/injection, schedule: Q01DX009 (ip), vehicle: acetone 88 % of control | dose: 37.5 mg/kg/injection, schedule: Q01DX009 (ip), vehicle: acetone 98 % of control | dose: 37.5 mg/kg/injection, schedule: Q04DX003 (ip), vehicle: saline 100 % of control | [14] 102 % of control | dose: 75.0 mg/kg/injection, schedule: Q04DX003 (ip), vehicle: saline 91 % of control | dose: 150.0 mg/kg/injection, schedule: Q01DX001 (ip), vehicle: saline 109 % of control

O=Cc1ccc(OCc2ccccc2)cc1
inactive: [20] 96 % of control | [21] 96 % of control | [22] 92 % of control

[Br][Ce]([Br])[Br]
inactive: [23] 91 % of control | [24] 94 % of control | [25] 94 % of control

CCOC(=O)c1nc2c(OC)nn(O)cc-2c1[N+](=O)[O-]
inactive: dose: 12.5 mg/kg/injection, schedule: Q04DX002 (ip), vehicle: saline with Tween-80 92 % of control | dose: 25.0 mg/kg/injection, schedule: Q04DX002 (ip), vehicle: saline with Tween-80 99 % of control

COC(=O)C(CCl)NC(=O)c1ccccc1 (configuration not stated)
inactive: [5] 105 % of control | [15] 90 % of control | [7] 102 % of control | [16] 95 % of control | [17] 96 % of control

CC(C)Nc1c(C(=O)c2ccccc2)cn(C(C)C)c1-c1ccccc1
inactive: [19] 94 % of control | [9] 91 % of control | [11] 88 % of control

COC(=O)C(Cc1ccccc1)NC(=O)C(C)NC(=O)OCc1ccccc1 (configuration not stated)
inactive: [20] 105 % of control | dose: 130.0 mg/kg/injection, schedule: Q04DX002 (ip), vehicle: Klucel (hydroxypropylcellulose) (HPC) 100 % of control and 86 % of control | [21] 100 % of control | dose: 300.0 mg/kg/injection, schedule: Q04DX002 (ip), vehicle: Klucel (hydroxypropylcellulose) (HPC) 100 % of control and 103 % of control | [22] 108 % of control

CCOP(=S)(OCC)Oc1ccc(Sc2ccc(OP(=S)(OCC)OCC)cc2)cc1
inactive: dose: 100.0 mg/kg/injection, schedule: Q01DX001 (ip), vehicle: saline 101 % of control | dose: 200.0 mg/kg/injection, schedule: Q01DX001 (ip), vehicle: saline 101 % of control | dose: 400.0 mg/kg/injection, schedule: Q01DX001 (ip), vehicle: saline 107 % of control

O=C(O)c1ccc(=O)[nH]c1
inactive: [15] 95 % of control | [23] 107 % of control | [16] 96 % of control | [24] 109 % of control | [18] 95 % of control | [25] 104 % of control

CC(=O)Nc1cc(NC(C)=O)c2nc(CN(C)c3ccc(C(=O)O)cc3)cnc2n1
inactive: [1] 101 % of control | [2] 98 % of control | [3] 97 % of control

CCCCCCCCOC(=O)Nc1ccc(S(=O)(=O)NC2CCCCC2)cc1
inactive: [6] 89 % of control | dose: 200.0 mg/kg/injection, schedule: Q01DX001 (ip), vehicle: carboxymethylcellulose (CMC) 89 % of control | dose: 400.0 mg/kg/injection, schedule: Q01DX001 (ip), vehicle: carboxymethylcellulose (CMC) 94 % of control

O=C1C=C(Nc2ccccc2)C(=O)C=C1Nc1ccccc1
inactive: [10] 86 % of control | [12] 86 % of control | [13] 86 % of control

CC(C)(C)c1cc(/C=N/NC(=S)Nc2ccccc2)cc(C(C)(C)C)c1O
inactive: [20] 96 % of control | [21] 89 % of control | [22] 92 % of control
